Results taken from PMC12204359, “Mechanistic Design of Cell-Penetrating Disruptors for a Phospho-Dependent Interaction” (Research Square, 2025).
Numbering of substitutions follows the chain as printed. Positions of bridges follow the written chain, without caps; N, C: chain ends. Non-standard residues stand in square brackets, D forms with d. Residues, ends and D or L forms follow the SMILES beside them. *: point of attachment. 5FAM = O=C1OC2(c3ccc(O)cc3Oc3cc(O)ccc32)c2ccc(C(=O)*)cc21; 6FAM = O=C1OC2(c3ccc(O)cc3Oc3cc(O)ccc32)c2cc(C(=O)*)ccc21; S5 = C=CCCC[C@](C)(N)C(=O)O; AEEEA = NCCOCCOCCOCC(=O)O

Legend:
[1] = biological target: T1, CHC^ankle (clathrin heavy chain aa 358–574) (Homo sapiens, UniProt Q00610); assay: Fluorescence polarisation direct binding assay, CHC ankle WT; details: direct binding FP, FAM labelled peptides; CHC WT (385–574); mean of three experiments ± SD; read-out: KD, stapled and control peptides, CHC WT
T1 construct: we used the minimal ankle region of CHC (CHC^ankle, aa 358–574); GST (TEV-cleavable); made in house
T1 sequence (Q00610 358-574): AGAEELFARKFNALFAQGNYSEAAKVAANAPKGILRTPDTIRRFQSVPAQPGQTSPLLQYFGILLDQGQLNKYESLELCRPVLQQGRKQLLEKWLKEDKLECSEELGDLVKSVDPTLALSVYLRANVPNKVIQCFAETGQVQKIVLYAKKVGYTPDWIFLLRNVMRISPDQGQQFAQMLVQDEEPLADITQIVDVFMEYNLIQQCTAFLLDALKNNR
Experimental: (§1) Binding affinity of CHC and TACC3 peptides was calculated based on fluorescence polarization assays performed as reported previously, using linear and stapled FAM-TACC3 peptides corresponding to aa 549–570 of human TACC3 protein. Linear peptides were purchased from PPR (Fareham, UK); Alta Bioscience (Redditch, UK); Biomatik Corporation (Ontario, Canada). Stock solutions of peptides were 10 mM in DMSO. Binding assays were performed in triplicate in the binding buffer 20 mM HEPES pH 7.5, 150 mM NaCl, 5 mM DTT, 0.05% Tween-20. Data analysis was performed using a one-site specific binding model in Prism (GraphPad software, v10.1.0).

K507A-CHC^ankle = biological target: T2, K507A-CHC^ankle (Homo sapiens, UniProt Q00610, K507A); assay: Fluorescence polarisation direct binding assay, K507A-CHC ankle; details: direct binding FP, FAM labelled peptides; CHC with K507A substitution; mean of three experiments ± SD; read-out: KD, stapled and control peptides, CHC K507A
T2 construct: we used the minimal ankle region of CHC (CHC^ankle, aa 358–574); GST (TEV-cleavable); made in house
T2 sequence (Q00610 358-574 K507A): T1 sequence (Q00610 358-574) with K150A
Excerpt: CHC constructs for binding studies were produced during previous work by cloning the respective CHC coding sequence of Q00610 (CLH1_HUMAN) aa 1–574 and 358–574, respectively) into a modified pGEX vector containing a TEV-cleavable GST tag[26]. Point mutations K506A and K507A were introduced by site-directed mutagenesis. GB1-TACC3 is the small protein GB1[47] fused to a short, disordered peptide sequence from human TACC3 (Q9Y6A5, aa 545–573). This hybrid sequence was cloned into a pETM6T1 vector which contains a TEV protease-cleavable N-terminal His-NusA tag.
as §1

HeLa cells = assay: Confocal microscopy of fixed HeLa cells (peptide localisation, endogenous TACC3 and CHC on mitotic spindle); format: cell-based
Experimental: HeLa cells grown on glass coverslips in complete growth medium and treated with 2.5, 5 and 10 μM FAM-peptides for 5 h. Cells were washed with PBS and fixed with PTEMF (20 mM PIPES, pH 6.8, 10 mM EGTA, 1 mM MgCl2, 0.2% Triton X-100 and 4% paraformaldehyde) for 10 min and permeabilized at room temperature in 0.5% Triton-X100 in PBS for 10 min. Cells were blocked in 3% BSA in PBS for 1 h and incubated overnight with primary antibodies diluted in 3% BSA/PBS buffer followed by 1 h incubation with secondary antibodies. Primary antibodies were as follows: mouse anti-CHC (X22; GTX22731; 1:250), rabbit anti-TACC3 (ab134154, Abcam; 1:500). Secondary antibodies were anti-mouse IgG Atto 594 (1:250, 76085, Merck) and anti-rabbit IgG Atto 647N antibody (1:250, 40839, Merck). Coverslips were mounted with ProLong Gold antifade reagent with DAPI (Invitrogen). Peptides were imaged using their 6-FAM fluorescent tag with a 488 nm argon laser. Imaging was performed on a Zeiss LSM880 upright confocal microscope using a 40x/1.4 NA oil objective. Z-stacks comprising of 9–13 × 1 μm sections were acquired. Images were captured using identical settings. The region of interest (~0.6 μm^2) was quantified in three different locations over the spindle, cytoplasm and in the non-cell region of background. Images were analysed using Fiji (v.2.9.0).

Structure (SMILES) | Kd [1] [µM] | Kd (K507A-CHC^ankle) [µM] | other results
CC(C)C[C@@H]1NC(=O)[C@H](C)NC(=O)[C@H](CO)NC(=O)[C@@](C)(NC(=O)[C@H](CCCCN)NC(=O)[C@H](Cc2ccccc2)NC(=O)c2ccc3c(c2)C(=O)OC32c3ccc(O)cc3Oc3cc(O)ccc32)CCCC=CCCC[C@@](C)(C(=O)N[C@@H](CCCCN)C(=O)N[C@@H](CCC(N)=O)C(=O)N[C@@H](CCC(=O)O)C(=O)N[C@@H](CC(C)C)C(=O)N[C@@H](Cc2ccc(O)cc2)C(=O)N[C@@H](CC(C)C)C(=O)N[C@@H](CCCCN)C(=O)N[C@@H](Cc2ccccc2)C(=O)N[C@@H](CC(=O)O)C(=O)N2CCC[C@H]2C(=O)N[C@@H](CC(C)C)C(=O)N[C@@H](CC(C)C)C(=O)N[C@@H](CCCNC(=N)N)C(=O)N[C@@H](CC(=O)O)C(=O)N[C@@H](CO)C(N)=O)NC1=O [SP3E] (5FAM-FK[S5]SAL[S5]KQELYLKFDPLLRDS-NH2; staple 3-7) | 78 ± 3 | 22 ± 6 | 
CC(C)C[C@@H]1NC(=O)[C@H](C)NC(=O)[C@H](CO)NC(=O)[C@@](C)(NC(=O)[C@H](CCCCN)NC(=O)[C@H](Cc2ccccc2)NC(=O)c2ccc3c(c2)C2(OC3=O)c3ccc(O)cc3Oc3cc(O)ccc32)CCCC=CCCC[C@@](C)(C(=O)N[C@@H](CCCCN)C(=O)N[C@@H](CCC(N)=O)C(=O)N[C@@H](CC(=O)O)C(=O)N[C@@H](CC(C)C)C(=O)N[C@@H](Cc2ccc(O)cc2)C(=O)N[C@@H](CC(C)C)C(=O)N[C@@H](CCCCN)C(=O)N[C@@H](Cc2ccccc2)C(=O)N[C@@H](CC(=O)O)C(=O)N2CCC[C@H]2C(=O)N[C@@H](CC(C)C)C(=O)N[C@@H](CC(C)C)C(=O)N[C@@H](CCCNC(=N)N)C(=O)N[C@@H](CC(=O)O)C(=O)N[C@@H](CO)C(N)=O)NC1=O [SP3D] (6FAM-FK[S5]SAL[S5]KQDLYLKFDPLLRDS-NH2; staple 3-7) | 92 ± 3 | 23 ± 6 | 
CC(C)C[C@H](NC(=O)[C@H](C)NC(=O)[C@H](CO)NC(=O)[C@H](CCC(=O)O)NC(=O)[C@H](CCCCN)NC(=O)[C@H](Cc1ccccc1)NC(=O)c1ccc2c(c1)C(=O)OC21c2ccc(O)cc2Oc2cc(O)ccc21)C(=O)N[C@@H](CCCNC(=N)N)C(=O)N[C@@H](CCCCN)C(=O)N[C@@H](CCC(N)=O)C(=O)N[C@@H](CCC(=O)O)C(=O)N[C@@H](CC(C)C)C(=O)N[C@@H](Cc1ccc(O)cc1)C(=O)N[C@@]1(C)CCCC=CCCC[C@@](C)(C(=O)N[C@@H](CC(C)C)C(=O)N[C@@H](CC(C)C)C(=O)N[C@@H](CCCNC(=N)N)C(=O)N[C@@H](CC(=O)O)C(=O)N[C@@H](CO)C(N)=O)NC(=O)[C@H](CC(=O)O)NC(=O)[C@H](Cc2ccccc2)NC(=O)[C@H](CCCCN)NC1=O [SP5E] (5FAM-FKESALRKQELY[S5]KFD[S5]LLRDS-NH2; staple 13-17) |  | 146 ± 3 | 
CC(C)C[C@H](NC(=O)[C@H](C)NC(=O)[C@H](CO)NC(=O)[C@H](CCC(=O)O)NC(=O)[C@H](CCCCN)NC(=O)c1ccc2c(c1)C(=O)OC21c2ccc(O)cc2Oc2cc(O)ccc21)C(=O)N[C@@H](CCCNC(=N)N)C(=O)N[C@@H](CCCCN)C(=O)N[C@@H](CCC(N)=O)C(=O)N[C@@H](CCC(=O)O)C(=O)N[C@@H](CC(C)C)C(=O)N[C@@H](CC(C)C)C(=O)N[C@@H](CC(C)C)C(=O)N[C@@H](CCC(=O)O)C(=O)N[C@@H](Cc1ccccc1)C(=O)N[C@@H](CC(=O)O)C(=O)N1CCC[C@H]1C(=O)N[C@@H](CC(C)C)C(=O)N[C@@H](Cc1ccccc1)C(=O)N[C@@H](CCCNC(=N)N)C(N)=O [Opt P6 TACC3 S558E] (5FAM-KESALRKQELLLEFDPLFR-NH2; N-terminus and C-terminus assumed) |  |  | cell permeability seen by confocal imaging (HeLa cells; fixed HeLa cells, 5 h after adding 5 μM FAM-peptide to the culture medium): not sufficiently cell permeable
CC(C)C[C@H](NC(=O)[C@H](C)NC(=O)[C@H](CO)NC(=O)[C@H](CCC(=O)O)NC(=O)[C@H](CCCCN)NC(=O)COCCOCCOCCNC(=O)c1ccc2c(c1)C1(OC2=O)c2ccc(O)cc2Oc2cc(O)ccc21)C(=O)N[C@@H](CCCNC(=N)N)C(=O)N[C@@H](CCCCN)C(=O)N[C@@]1(C)CCCC=CCCC[C@@](C)(C(=O)N[C@@H](CCC(=O)O)C(=O)N[C@@H](Cc2ccccc2)C(=O)N[C@@H](CC(=O)O)C(=O)N2CCC[C@H]2C(=O)N[C@@H](CC(C)C)C(=O)N[C@@H](Cc2ccccc2)C(=O)N[C@@H](CCCNC(=N)N)C(=O)N[C@@H](CC(=O)O)C(=O)N[C@@H](CO)C(N)=O)NC(=O)[C@H](CC(C)C)NC(=O)[C@H](CC(C)C)NC(=O)[C@H](CCC(=O)O)NC1=O [Opt PEG3 SP TACC3] ({6FAM-AEEEA}-KESALRK[S5]ELL[S5]EFDPLFRDS-NH2; staple 8-12) |  |  | colocalisation with endogenous TACC3 on the mitotic spindle (HeLa cells; fixed mitotic HeLa cells, FAM-labelled peptides, confocal microscopy): colocalised with endogenous TACC3 on the mitotic spindle; reduction of endogenous TACC3 levels in the mitotic spindle (HeLa cells; metaphase HeLa cells, peptide 2.5, 5 and 10 μM, 5 h, compared to the negative control SP TACC3 peptide): up to 40%
CC(C)C[C@H](NC(=O)[C@H](Cc1ccc(O)cc1)NC(=O)[C@H](CC(C)C)NC(=O)[C@]1(C)CCCC=CCCC[C@](C)(NC(=O)[C@H](C)NC(=O)[C@H](CO)NC(=O)[C@H](CCC(=O)O)NC(=O)[C@H](CCCCN)NC(=O)[C@H](Cc2ccccc2)NC(=O)c2ccc3c(c2)C2(OC3=O)c3ccc(O)cc3Oc3cc(O)ccc32)C(=O)N[C@@H](CCCNC(=N)N)C(=O)N[C@@H](CCCCN)C(=O)N[C@@H](CCC(N)=O)C(=O)N1)C(=O)N[C@@H](CCCCN)C(=O)N[C@@H](Cc1ccccc1)C(=O)N[C@@H](CC(=O)O)C(=O)N1CCC[C@H]1C(=O)N[C@@H](CC(C)C)C(=O)N[C@@H](CC(C)C)C(=O)N[C@@H](CCCNC(=N)N)C(=O)N[C@@H](CC(=O)O)C(=O)N[C@@H](CO)C(N)=O [SP2] (6FAM-FKESA[S5]RKQ[S5]LYLKFDPLLRDS-NH2; staple 6-10) | 145 ± 3 | 23 ± 5 | 
